These results are taken from patent publication US20080090847A1, “HETEROCYCLIC COMPOUNDS AND USES THEREOF AS D-ALANYL-D-ALANINE LIGASE INHIBITORS” (PLIVA D.D., priority 2001, published 2008).

Like-named read-outs stand apart in the source and are kept apart here. Some results are limits rather than exact numbers.

Holding throughout (type): biochemical
Assay [1] has as its target E. coli ligase (D-Ala-D-Ala ligase) (Escherichia coli, UniProt P07862). The experiment in a line: D-Ala-D-Ala ligase Ki determination (PK/LDH coupled assay), E. coli ligase. The text has this: (§1) Inhibition of D-Ala-D-Ala ligase can be assayed for using the pyruvate kinase/lactate dehydrogenase (PK/LDH) assay described in Example 2, and as described in the literature (e.g., in Sarthy et al., Anal. Biochem., 254:288-290, 1997). In the bacterial cell wall synthesis process, the ligase catalyzes the conversion of adenosine triphosphate (ATP) to adenosine diphosphate (ADP) concurrent with the ligation of two D-alanine residues to form D-alanyl-D-alanine. PK then regenerates ATP from the ADP thus created simultaneously with the conversion of phosphopyruvate to pyruvate. LDH catalyzes the reduction of pyruvate to lactate by converting NADH to NAD^+. By monitoring the production rate of NAD^+ (e.g., using UV/Vis spectroscopy), D-Ala-D-Ala ligase activity can be ascertained.
(§2) The protein sequence for the enzyme D-ala-D-ala ligase has been determined in a variety of different bacterial species using standard techniques in biochemistry (see Table 5). The protein sequence from any species can be overexpressed in an appropriate host organism such as E. coli using standard molecular biology techniques. The ligase enzyme can be harvested, purified, and used in the above described assay for the determination of inhibitory activity.
(§3) The synthetic analogs of Example 1 were dissolved in dimethylsulfoxide (DMSO) at a concentration of 100 mM on the day of screening, using a vortex mixer and sonication if necessary for dissolution. The solutions were kept at room temperature until screening was completed.
(§4) A 10 mM NADH (Sigma) stock solution was prepared freshly on the day of screening by dissolving 32 μmol NADH in 3.2 ml double-distilled water. The NADH solution was kept on ice. Stock solutions containing 50 mM phosphoenolpyruvate (PEP; Sigma), 500 μM HERMES, 30 mM adenosine triphosphate (ATP; Sigma), 200 mM D-alanine (Sigma), and 4× core buffer (i.e., 400 mM Hepes, 40 mM magnesium chloride, and 40 mM potassium chloride), were also stored on ice. A stock solution of pyruvate kinase/lactate dehydrogenase (PK/LDH) was also obtained from Sigma.
(§5) Table of Final concentrations are dependent on the type of screening:
(§6) For each set of test compounds, two 96-well plates were used: an inhibitor plate and an enzyme plate. The test compounds correspond to rows A-G of the plates. Adenosine (Sigma) dissolved in DMSO, used as a control, corresponds to row H of each plate.
(§7) The enzyme solution was allowed to equilibrate to 25° C.
(§8) Dilutions were prepared in the inhibitor plate as follows: 50 μl DMSO was added to each well of columns 1-11, rows A-G, of the inhibitor plate. 50 μl DMSO were added to each well of columns 1-11, row H. 100 μl of the 100 mM test solutions were added to column 12, rows A-G (i.e., the first compound in row A, the second compound in row B, and so on). 100 μl of a 100 mM Adenosine solution was added to column 12, row H.
(§9) 50 μl of the test solution was transferred from column 12 in each row to column 11 of the a same row, mixing the solution with the DMSO. 50 μl of solution was then transferred from column 11 in each row to column 10 in the same row, 50 μl from column 10 was transferred to column 9, and so on, down to column 2. No solution was transferred to column 1. Multichannel pipettors were used in making the serial dilution.
(§10) 120 μl of the enzyme solution was added to each well of the enzyme plate.
(§11) The substrate solutions were brought to 25° C.
(§12) The analogs and enzymes were then incubated at 25° C. Since the reactions were initiated in columns, the analog addition is also in columns. At t=0 minutes, 5 μl analog was transferred from each well of columns 1-4 of the inhibitor plate to the corresponding well of the enzyme plate. At t=4 minutes, 5 μl analog was transferred from each well of columns 5-8 of the inhibitor plate to the corresponding well of the enzyme plate. At t=8 minutes, 5 μl analog was transferred from each well of columns 9-12 of the inhibitor plate to the corresponding well of the enzyme plate. The inhibitor plate was then frozen. […]

The target in assay [2] is Staph ligase (D-Ala-D-Ala ligase) (Staphylococcus aureus, UniProt Q5HEB7). Put plainly: D-Ala-D-Ala ligase Ki determination (PK/LDH coupled assay), Staph ligase.
Source text: as §1, §2, §3, §4, §5, §6, §7, §8, §9, §10, §11, §12

The target in assay [3] is H. Influenzae ligase (D-Ala-D-Ala ligase) (Haemophilus influenzae, UniProt P44405). The experiment in a line: D-Ala-D-Ala ligase Ki determination (PK/LDH coupled assay), H. influenzae ligase.
Source text: as §1, §2, §3, §4, §5, §6, §7, §8, §9, §10, §11, §12

Assay [4] concerns the target T1, Strep ligase (D-Ala-D-Ala ligase) (Streptococcus pneumoniae serotype 4, UniProt P0CB57).
T1 sequence (P0CB57 1-347): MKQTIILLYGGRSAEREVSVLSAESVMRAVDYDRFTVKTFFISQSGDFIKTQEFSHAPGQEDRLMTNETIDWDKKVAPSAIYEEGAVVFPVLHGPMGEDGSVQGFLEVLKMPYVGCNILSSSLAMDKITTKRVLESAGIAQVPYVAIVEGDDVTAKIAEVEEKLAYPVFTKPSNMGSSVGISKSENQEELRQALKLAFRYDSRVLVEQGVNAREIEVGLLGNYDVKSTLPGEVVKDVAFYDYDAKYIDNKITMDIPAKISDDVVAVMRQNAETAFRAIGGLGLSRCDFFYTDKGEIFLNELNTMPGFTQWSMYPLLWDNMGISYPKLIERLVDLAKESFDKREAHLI
Put plainly: D-Ala-D-Ala ligase Ki determination (PK/LDH coupled assay), Strep ligase.
Source text: as §1, §2, §3, §4, §5, §6, §7, §8, §9, §10, §11, §12

The target in assay [5] is T2, 4 ligases in the panel (D-Ala-D-Ala ligase).
T2 construct: rows headed: Ki's against 3 of the 4 ligases in the panel; other: text b65; 3 of the 4 ligases
Put plainly: Ligase panel statements (ligases not individually named). The conditions noted are these: 3 of the 4 ligases; read-out: Ki's against 3 of the 4 ligases in the panel.
Source text: as §1, §2, §3
(§13) A 10 mM NADH (Sigma) stock solution was prepared freshly on the day of screening by dissolving 32 μmol NADH in 3.2 ml double-distilled water. The NADH solution was kept on ice. […]
(§14) Plots of reaction rates vs. inhibitor concentration were generated using Kaleidograph®, and Ki values were determined after the data was fitted to the proper equation.

Assay [6] deals with T3, 4 ligases in the panel (D-Ala-D-Ala ligase).
T3 construct: rows headed: ligase panel activity (in words); other: text b65
The assay is described as above.
Source text: as §1, §2, §3, §13, §14

Where [7] appears, read: E. coli ligase Ki/ATP (uM) avg, Table 3, Ki/ATP, avg.
[8] abbreviates: Table 3, Ki/ATP, avg, read-out: Staph ligase Ki/ATP (uM) avg.
[9] abbreviates: Table 3, Ki/ATP, avg, read-out: H. Influenzae ligase Ki/ATP (uM) avg.
Where [10] appears, read: Table 3, Ki/ATP, avg, read-out: Strep ligase Ki/ATP (uM) avg.
Setting [11] is: E. coli ligase Ki/ATP (uM) avg, Table 4, Ki/ATP, avg.
[12] abbreviates: Table 4, Ki/ATP, avg, read-out: Staph ligase Ki/ATP (uM) avg.
Where [13] appears, read: Table 4, Ki/ATP, avg, read-out: H. Influenzae ligase Ki/ATP (uM) avg.
Setting [14] is: Table 4, Ki/ATP, avg, read-out: Strep ligase Ki/ATP (uM) avg.

H. Influenzae ligase (D-Ala-D-Ala ligase), sequence (P44405 whole entry): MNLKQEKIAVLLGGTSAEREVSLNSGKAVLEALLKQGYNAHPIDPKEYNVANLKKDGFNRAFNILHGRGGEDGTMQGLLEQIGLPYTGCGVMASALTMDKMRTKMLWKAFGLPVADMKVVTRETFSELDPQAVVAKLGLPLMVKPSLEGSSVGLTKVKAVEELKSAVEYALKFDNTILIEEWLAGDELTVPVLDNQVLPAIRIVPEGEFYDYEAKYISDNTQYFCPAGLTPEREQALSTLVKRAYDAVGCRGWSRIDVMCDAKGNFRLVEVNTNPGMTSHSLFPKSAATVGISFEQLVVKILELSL
Staph ligase (D-Ala-D-Ala ligase), sequence (Q5HEB7 whole entry): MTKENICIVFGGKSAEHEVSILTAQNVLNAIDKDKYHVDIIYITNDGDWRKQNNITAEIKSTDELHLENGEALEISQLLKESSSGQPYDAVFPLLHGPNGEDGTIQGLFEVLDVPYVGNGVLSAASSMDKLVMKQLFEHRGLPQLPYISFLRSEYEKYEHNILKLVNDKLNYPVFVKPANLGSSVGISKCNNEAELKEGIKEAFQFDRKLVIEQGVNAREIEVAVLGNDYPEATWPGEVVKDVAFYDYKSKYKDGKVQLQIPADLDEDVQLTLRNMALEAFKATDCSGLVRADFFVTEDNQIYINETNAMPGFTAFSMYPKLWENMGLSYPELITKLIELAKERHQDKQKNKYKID

As to `CCOc1ccc2ccccc2c1CN(CCC(=O)NCc1cccc(CN)c1)c1ncc2c(N)nc(N)nc2n1`, the Ki in assay [1] (setting [7]) is 5.3 µM; in assay [2] (setting [8]), 0.9 µM; in assay [3] (setting [9]), 0.4 µM; in assay [4] (setting [10]), 0.9 µM; in assay [5], less than 1 µM.

As to `CCOc1ccc2ccccc2c1CN(CCC(=O)NCC(=N)N)c1ncc2c(N)nc(N)nc2n1`, the Ki in assay [1] (setting [7]) was determined as 1 µM; in assay [2] (setting [8]), 6.3 µM; in assay [3] (setting [9]), 0.6 µM; in assay [4] (setting [10]), 1.4 µM. Besides, in assay [6], the “ligase panel activity (in words)” value was “activity similar to that of the first compound”.

For `CCOc1ccc2ccccc2c1CN(CCC(=O)NCc1ccc(N)cc1)c1ncc2c(N)nc(N)nc2n1`, the Ki in assay [1] (setting [7]) was 8.7 µM; in assay [2] (setting [8]) it was 1.2 µM; in assay [3] (setting [9]) it was 1.6 µM; in assay [4] (setting [10]) it was 1.6 µM. Moreover, the “ligase panel activity (in words)” value in assay [6] is reported as “potent against three ligase species”.

On to `CCOc1ccc2ccccc2c1CN(CCC(=O)N1CCOCC1)c1ncc2c(N)nc(N)nc2n1`, for which the Ki in assay [1] (setting [7]) worked out at 1.9 µM; in assay [2] (setting [8]), 3.8 µM; in assay [3] (setting [9]) it was 1.3 µM; in assay [4] (setting [10]), 4.1 µM.

Regarding `C[C@@H](c1cccc2ccccc12)N(CC(O)C(=O)O)c1ncc2c(N)nc(N)nc2n1` (stereo partly drawn), the Ki in assay [1] (setting [11]) stood at 1.4 µM; in assay [2] (setting [12]) it was 4.3 µM; in assay [3] (setting [13]), 3.5 µM; in assay [4] (setting [14]) it was 4.3 µM.

As for `CCOc1ccc2ccccc2c1CN(CC(O)C(=O)O)c1ncc2c(N)nc(N)nc2n1` (stereo not drawn), the Ki in assay [1] (E. coli ligase potency) was found to be 0.143 µM; in assay [2] (read-out: activity against Staph (ligase)), 4.1 µM; in assay [3] (read-out: activity against H. influenzae (ligase)), 0.566 µM; in assay [4] (read-out: activity against Strep (ligase)), 2.6 µM.

As to `C[C@@H](c1cccc2ccccc12)N(CCC(=O)O)c1ncc2c(N)nc(N)nc2n1`, the Ki in assay [1] (setting [11]) was 4.2 µM; in assay [2] (setting [12]) it was 10 µM; in assay [3] (setting [13]) it was 5.7 µM; in assay [4] (setting [14]) it was 14.6 µM.

On to `CCOc1ccc2ccccc2c1CN(CCC(=O)NCc1ccccn1)c1ncc2c(N)nc(N)nc2n1`, for which the Ki in assay [1] (setting [7]) was 9.6 µM; in assay [2] (setting [8]), 9.5 µM; in assay [3] (setting [9]), 0.267 µM; in assay [4] (setting [10]), 3.1 µM.

On to `CC(c1cccc2ccccc12)N(CCCCN)c1ncc2c(N)nc(N)nc2n1` (stereo not drawn) [drawing 55], for which the Ki in assay [1] (E. coli ligase Ki/ATP (uM) avg, Table 5, Ki/ATP, avg) was 0.135 µM; in assay [2] (Table 5, Ki/ATP, avg, read-out: Staph ligase Ki/ATP (uM) avg), 32 µM; in assay [3] (Table 5, Ki/ATP, avg, read-out: H. Influenzae ligase Ki/ATP (uM) avg), 4.2 µM; in assay [4] (Table 5, Ki/ATP, avg, read-out: Strep ligase Ki/ATP (uM) avg) it was 23.1 µM.
